Key:
SHP2 = biological target: T1, SHP2 (Homo sapiens, UniProt Q06124); assay: SHP2 activity, p-Nitrophenyl Phosphate (pNPP) colorimetric assay; assay type: biochemical; details: 40 uM
T1 sequence (Q06124 1-593): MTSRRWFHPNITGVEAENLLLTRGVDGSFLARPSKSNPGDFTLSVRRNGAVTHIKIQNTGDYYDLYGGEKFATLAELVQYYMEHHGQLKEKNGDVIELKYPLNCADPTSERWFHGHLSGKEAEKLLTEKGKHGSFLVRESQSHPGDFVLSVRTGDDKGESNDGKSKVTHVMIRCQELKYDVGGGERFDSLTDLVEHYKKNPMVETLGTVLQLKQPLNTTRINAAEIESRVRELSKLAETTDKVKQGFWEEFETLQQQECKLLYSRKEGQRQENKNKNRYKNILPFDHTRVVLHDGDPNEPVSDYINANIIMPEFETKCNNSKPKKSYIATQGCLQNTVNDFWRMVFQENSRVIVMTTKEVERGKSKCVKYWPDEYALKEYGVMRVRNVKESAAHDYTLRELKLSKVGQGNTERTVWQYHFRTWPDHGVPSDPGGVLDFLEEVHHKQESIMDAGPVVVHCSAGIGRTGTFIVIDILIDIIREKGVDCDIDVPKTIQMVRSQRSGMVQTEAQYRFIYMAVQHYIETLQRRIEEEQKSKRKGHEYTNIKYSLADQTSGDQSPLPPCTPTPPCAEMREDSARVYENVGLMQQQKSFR

[1] = test system: NFAT mediated transcriptional activity of Jurkat cells; assay: NFAT luciferase reporter in Jurkat(-PD1) cells co-cultured with wild type Raji or Raji-PD-L1 cells without or with SEE; assay type: cell-based; details: for modulation effect on basal NFAT activity: absence of SEE, wild type Raji or PD-L1 over-expressed Raji cells; for inhibition on NFAT activity of Jurkat cells: presence of SEE; for modulation of basal NFAT activity: S compounds up to 40 uM; for inhibition of SEE triggered NFAT activity: at 20 to 40 uM, SEE 10 ng/ml
[2] = test system: NFAT mediated transcriptional activity of Jurkat-PD1 TCRαβ knockout cells; assay: NFAT luciferase reporter in TCRαβ knockout Jurkat-PD1 cells; assay type: cell-based
[3] = biological target: CD19 naturally expressed on the cell surface of Raji cells (UniProt P15391); assay: cell-based or functional assay
CD19 naturally expressed on the cell surface of Raji cells, sequence (P15391 20-556 limits assumed): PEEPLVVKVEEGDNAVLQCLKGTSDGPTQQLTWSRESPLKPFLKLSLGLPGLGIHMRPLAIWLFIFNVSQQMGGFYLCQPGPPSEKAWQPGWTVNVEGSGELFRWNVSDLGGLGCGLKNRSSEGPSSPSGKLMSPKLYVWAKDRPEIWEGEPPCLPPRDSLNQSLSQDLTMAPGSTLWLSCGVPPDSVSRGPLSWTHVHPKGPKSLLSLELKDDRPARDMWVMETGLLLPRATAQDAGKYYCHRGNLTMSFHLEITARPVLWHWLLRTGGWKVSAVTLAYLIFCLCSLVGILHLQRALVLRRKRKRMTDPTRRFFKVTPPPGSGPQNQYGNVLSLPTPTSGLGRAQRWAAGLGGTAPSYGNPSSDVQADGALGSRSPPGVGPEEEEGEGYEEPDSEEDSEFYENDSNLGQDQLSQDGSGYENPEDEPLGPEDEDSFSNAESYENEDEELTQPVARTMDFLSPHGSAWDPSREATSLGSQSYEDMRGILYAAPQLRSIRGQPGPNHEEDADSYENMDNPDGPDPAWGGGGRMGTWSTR

[4] = test system: Lck, Fyn, Zap70, LAT and Pyk2; assay: Western blot of protein phosphorylation of T cell receptor downstream cascades in Jurkat cells; assay type: cell-based; details: 45 min
Procedure: FIGS. 8A-8D are western blot analyses showing effects of YIV-906 (FIG. 8A), single herbs (FIG. 8A), the fractions of YIV-906 (FIG. 8B), P (FIG. 8C), and S (FIG. 8D) on protein phosphorylation of T cell receptor signaling cascades including, Lck, Fyn, Zap70, LAT and Pyk2. […] All eluted fractions were dried and reconstituted with water to equivalent concentration at 100 mg/ml. Jurkat cells were treated with YIV-906 (FIG. 8A), single herbs (FIG. 8A), the fractions of YIV-906 (FIG. 8B), P (FIG. 8C), and S (FIG. 8D) at equivalent dose 320 ug/ml for 45 min. Western blot analysis was used to determine the protein phosphorylation using specific antibodies. GAPDH was used to normalize the protein loading.
FIGS. 9A-9B show chemical identification of fractions of P (FIG. 9A) and S (FIG. 9B) after C18 column fractionation and their impacts on protein phosphorylation for Lck, Zap70, Lat, Fyn/Src, Pyk2. Equivalent concentration, 10 mg/ml, was used for LC-MS analysis. Equivalent concentration, 320 ug/ml for 45 min, was used for treating Jurkat cells for western blotting analysis. Identified chemicals (putative), based on their mass and mass of their fragments, were listed under each fraction. Non-identified chemical was not listed in this figure. Fraction could induce phosphorylation of specific protein was indicted as red upward arrow.
FIG. 10 show effects of S and P compounds on protein phosphorylation of T cell receptor signaling cascades including, Lck, Fyn, Zap70, LAT and Pyk2. Jurkat cells were treated with S and P compounds for 45 min. Western blot analysis was used to determine the protein phosphorylation using specific antibodies.
Jurkat-PD1 cells 10^6/ml were placed in 24 well plate treated with YIV-906 or its components herbs for 45 minutes. After spinning down the cells at 1000 g centrifugation for 10 min, red blood cells were lysed with 1 ml BD pharm lyse on ice. Cells were collected at 1000 g centrifugation for 10 min. 2×10^6 cells were used for each staining sample. The cells were prepared with 2X protein loading buffer (Tris pH 6.8 1M, SDS 1%, glycerol, B-mercaptoethanol, bromophenol blue, distilled water). The samples were then heated to 95° C. for 5 minutes to denature the proteins prior to western blot. SDS polyacrylamide gel electrophoresis (10% Mini-Protean TGX™ Precast Protein Gels, BioRad) was used to separate proteins according to their electrophoretic mobility. The protein extractions were deposited in the wells of the gel, 10 μL per well. The migration was performed in a 1X running buffer (Tris/Glycine/SDS) at 180 V for 50 minutes. The transfer of the proteins was performed on a PVDF membrane in the transfer buffer (Tris-CAPS AX, methanol, SDS 10%, distilled water) at 75 V for 1 hour. The non-specific binding sites on the PVDF membrane were blocked with a blocking solution (3% milk powder and 1X TBS-T) for 30 minutes. Then, the PVDF membrane was incubated with the primary antibody against the proteins of interest overnight at 4° C. The information of primary antibodies is as follows: P-Lck-Y394 (Biolegend, #933101), P-Zap70-Y319 (Cell signaling, #2717), P-LAT-Y191 (Cell signaling, #3584) P-SRC (Fyn) Y416 (Cell, signaling, #6943), P-Pyk2-Y402 (Cell signaling, 3291), GAPDH (Cell Signaling, #5174). […] Image-J was used to quantify the total intensity of immunoreactive bands. […]

[5] = Jurkat-PD1 with wild type Raji or PD-L1 over-expressed Raji cells, without SEE

CC1(C)[C@@H](O[C@H]2O[C@H](C(=O)O)[C@@H](O)[C@H](O)[C@H]2O[C@@H]2O[C@H](C(=O)O)[C@@H](O)[C@H](O)[C@H]2O)CC[C@]2(C)[C@H]3C(=O)C=C4[C@@H]5C[C@@](C)(C(=O)O)CC[C@]5(C)CC[C@@]4(C)[C@]3(C)CC[C@@H]12 [Glycyrrhizic acid]
inhibitory effect on SHP2, G compounds (SHP2): relatively higher inhibitory effects on SHP2 than other G compounds

O=C(/C=C/c1ccc(O)cc1)c1ccc(O)cc1O [Isoliquiritigenin]
modulation effect on basal NFAT activity ([1]; 10 uM): some modulation effect
inhibition on NFAT activity of Jurkat cells ([1]; 40 uM): showed inhibition on NFAT activity

O=C1C[C@@H](c2ccc(O)cc2)Oc2cc(O)ccc21 [liquiritigenin]
modulation effect on basal NFAT activity ([1]; 40 uM): some modulation effect

O=C1C[C@@H](c2ccc(O[C@@H]3O[C@H](CO)[C@@H](O)[C@H](O)[C@H]3O)cc2)Oc2cc(O)ccc21 [liquiritin]
modulation effect on basal NFAT activity ([1]; 20 uM): some modulation effect

COc1c(O)cc2oc(-c3ccccc3)cc(=O)c2c1O [oroxylin A]
modulation of basal NFAT activity [1, 5]: could modulate the basal NFAT activity
inhibition of SEE triggered NFAT activity [1]: could inhibit SEE triggered NFAT activity
impact on NFAT activity, Jurkat-PD1 versus Jurkat-PD1 TCRαβ KO cells [2]: very similar impact on NFAT activity
inhibitory effect on SHP2, S compounds (SHP2): showed inhibitory effect on SHP2

Anti-PD1: antibody produced from Nivolumab clone; InVivoSIM anti-human PD-1 (Nivolumab Biosimilar)
rescue of depressed NFAT activity (due to the interaction of PD1 and PD-L1) in Jurkat-PD1 cells ([1]; Raji-PD-L1 cells, SEE 10 ng/ml or 30 ng/ml, YIV-906 160 ug/ml, nivolumab biosimilar 18 ug/ml): rescued the depressed NFAT activity

chimeric antigen receptor (CAR-CD19-CD3zeta) on Jurkat-PD1 NFAT-luc cells
NFAT activity of Jurkat-PD1 CAR-CD19 cells co-cultured with Raji (NFAT luciferase reporter) [3]: 40 fold

COc1c(O[C@@H]2O[C@H](C(=O)O)[C@@H](O)[C@H](O)[C@H]2O)cc(O)c2c(=O)cc(-c3ccccc3)oc12 [wogonoside]
inhibitory effect on SHP2, S compounds (SHP2): showed inhibitory effect on SHP2

COc1c(O[C@@H]2O[C@H](C(=O)O)[C@@H](O)[C@H](O)[C@H]2O)cc2oc(-c3ccccc3)cc(=O)c2c1O [oroxylin A 7-O-beta-D-glucuronide]
modulation of basal NFAT activity [1, 5]: could modulate the basal NFAT activity
dose required to achieve 2-fold activity of NFAT ([1]; basal, without SEE, Jurkat-PD1 with wild type Raji or PD-L1 over-expressed Raji cells): 40 µM
impact on NFAT activity, Jurkat-PD1 versus Jurkat-PD1 TCRαβ KO cells [2]: very similar impact on NFAT activity
induction effect on P-Zap70-Y319, P-SRC (Fyn)-Y416 and P-Pyk2-Y402 ([4]; 40 uM): some induction effect
inhibitory effect on SHP2, S compounds (SHP2): showed inhibitory effect on SHP2

O=C(O)[C@H]1O[C@@H](Oc2cc3oc(-c4ccccc4)cc(=O)c3c(O)c2O)[C@H](O)[C@@H](O)[C@@H]1O [Baicalin]
induction effect on P-Zap70-Y319, P-SRC (Fyn)-Y416 and P-Pyk2-Y402 ([4]; 40 uM): some induction effect
inhibitory effect on SHP2, S compounds (SHP2): showed inhibitory effect on SHP2

COc1c(CC=C(C)C)c(O)cc2oc(=O)c(-c3ccc(O)cc3O)cc12 [glycycoumarin]
modulation effect on basal NFAT activity ([1]; 10 uM): some modulation effect

C[C@]12C[C@@H](O)[C@@H]3C[C@@]1(O[C@@H]1O[C@H](CO)[C@@H](O)[C@H](O)[C@H]1O)[C@@]3(COC(=O)c1ccccc1)C(=O)O2 [Albiforin]
inducing P-Zap70-Y319 and P-Pyk2-Y402 [4]: some effect

COc1ccc2c(c1O)-c1c(O)c(OC)cc3c1[C@H](C2)[N+](C)(C)CC3 [Magnoflorine]
inhibition on NFAT activity of Jurkat cells ([1]; Z compound up to 40 uM): showed inhibition on NFAT activity

C[C@@]12C[C@@]3(O)O[C@@H](O1)[C@]1(COC(=O)c4ccccc4)[C@H]3C[C@@]12O[C@@H]1O[C@H](CO)[C@@H](O)[C@H](O)[C@H]1O [Paeoniforin]
inducing P-Zap70-Y319 and P-Pyk2-Y402 [4]: some effect

C=CC(C)(C)c1cc(/C=C/C(=O)c2ccc(O)cc2)c(OC)cc1O [licochalcone A]
inhibition on NFAT activity of Jurkat cells ([1]; 40 uM): showed inhibition on NFAT activity
modulation effect on basal NFAT activity ([1]; 10-20 uM): some modulation effect

CC1(C)[C@@H](O)CC[C@]2(C)[C@H]3C(=O)C=C4[C@@H]5C[C@@](C)(C(=O)O)CC[C@]5(C)CC[C@@]4(C)[C@]3(C)CC[C@@H]12 [glycyrrhetinic acid]
inhibitory effect on SHP2, G compounds (SHP2): relatively higher inhibitory effects on SHP2 than other G compounds

O=c1cc(-c2ccccc2)oc2cc(O)c(O)c(O)c12 [baicalein]
modulation of basal NFAT activity [1, 5]: could modulate the basal NFAT activity
inhibition of SEE triggered NFAT activity [1]: could inhibit SEE triggered NFAT activity
impact on NFAT activity, Jurkat-PD1 versus Jurkat-PD1 TCRαβ KO cells [2]: very similar impact on NFAT activity
induction of protein phosphorylation of all examined proteins (Lck, Zap70, LAT, Fyn, Pyk2) ([4]; 40 uM): could strongly induce protein phosphorylation of all examined proteins
inhibitory effect on SHP2, S compounds (SHP2): showed inhibitory effect on SHP2

Reference: patent publication US20250177467A1, “COMPOSITIONS AND METHODS FOR MODULATING NUCLEAR FACTOR OF ACTIVATED T-CELLS (NFAT) ACTIVITY OF T CELLS” (Yale University, priority 2022, published 2025)
